Results: US20230406883A1, “COMPOUNDS AND THEIR USE IN TREATMENT OF TACHYKININ RECEPTOR MEDIATED DISORDERS” (Embark Biotech ApS, priority 2020, published 2023)
Numbered stars: 1 amine (or outer) side, 2 acyl side, 3 side chain; on linkers, the order of the positions; unused ones are H or OH. Square brackets hold non-standard residues; d marks the D form. Peptide text beside a SMILES is read from it. * marks the point of attachment. C18 diacid = O=C(O)CCCCCCCCCCCCCCCCC(=O)*; C16 diacid = O=C(O)CCCCCCCCCCCCCCC(=O)*; γGlu = O=C(O)[C@H](CCC(=O)[*:2])N[*:1]; Conj‑Neu‑C18DA = not defined here; NMeL = CN[C@@H](CC(C)C)C(=O)O; hSer = N[C@@H](CCO)C(=O)O; Nle = CCCC[C@H](N)C(=O)O; AEEA = NCCOCCOCC(=O)O; Aib = CC(C)(N)C(=O)O; βAla = NCCC(=O)O

Columns and labels:
Assay in all cases: IP3 assay (inositol trisphosphate, 3H-myoinositol) in transiently transfected COS-7 cells
Type in all cases: cell-based
hNK1R = target: T1, hNK1R (Homo sapiens, UniProt P25103); conditions: for EC50 / hNK1R, IP3 Efficacy: COS-7 cells; for EC50: 0.2% ovalbumin buffer; for hNK1R, IP3 Efficacy: figure legends: percent of 10^-6 M NKA
T1 construct: host or cells: COS-7
T1 sequence (P25103 whole entry): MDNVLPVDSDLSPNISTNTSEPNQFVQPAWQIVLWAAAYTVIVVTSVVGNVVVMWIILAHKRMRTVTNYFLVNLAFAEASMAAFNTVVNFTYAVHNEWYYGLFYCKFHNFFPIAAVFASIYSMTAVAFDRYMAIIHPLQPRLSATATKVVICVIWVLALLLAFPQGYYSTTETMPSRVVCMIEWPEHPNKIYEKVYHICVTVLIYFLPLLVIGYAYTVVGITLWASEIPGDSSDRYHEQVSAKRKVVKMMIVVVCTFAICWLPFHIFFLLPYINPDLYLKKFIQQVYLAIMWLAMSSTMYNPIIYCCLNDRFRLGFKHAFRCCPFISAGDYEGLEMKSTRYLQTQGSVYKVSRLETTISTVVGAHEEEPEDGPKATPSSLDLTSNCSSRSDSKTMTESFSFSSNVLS
Protocol: (§1) Agonist-induced G-protein coupled receptor (GPCR) activation was measured by an Inositol-1,4,5-Trisphosphate [^3H] Radioreceptor Assay (IPs Assay). Assays were carried out using COS-7 cells transiently transfected by calcium phosphate transfection with a vector pcDNA3.1(+) encoding one of the indicated receptors (Genscript). Briefly, DNA mixed with CaCl2 (2 M) and TE-buffer (10 mM Tris-HCl, 1 mM EDTA, pH 7.5) was dropwise added to 2×HBS (50 mM HEPES, 280 mM NaCl, 1.5 mM NaH2PO4, pH 7.2) and incubated for 45 min at room temperature (22±2° C.). The mixture and a final concentration of 100 μM Chloroquine were added to the cells and left to incubate for 5 hours at 37° C. under standard cell culture conditions (10% CO2) before changing medium to fresh medium containing 5 μl/mL Myo-[2-^3H(N)]-inositol (labelling medium).
(§2) The IP3 assay takes advantage of the tachykinin receptors' ability to induce production of the inositol trisphosphate (IP3) second messenger upon agonist (ligand) binding on receptor expressing cells following an initial ^3H-inositol labelling period. In effect this means that production of the second messenger IP3 as a measure of receptor activity can be assessed by counting ^3H-activity.
(§3) Assay solutions used: Wash buffer (HBSS), Assay buffer (HBSS+10 mM LiCl and 0,2% w/v ovalbumin), Lysis buffer (10 mM formic acid), and SPA YSI beads (12.5 mg/ml in H2O). The assay was performed the day after transfection. Briefly, labelling medium was aspirated, and plates were washed ×1 in wash buffer before adding 100 μl assay buffer, pre-incubated for 30 min followed by 120 min incubation with agonist, both at 37° C. After incubation, plates were immediately placed on ice and the incubation medium was aspirated and 40 μl of 10 mM formic acid per well was added. Plates were incubated for at least 30 min on ice. 60 μl (1 mg/well) SPA YSI beads/well was pipetted into a solid white 96 wells plate and 35 μl of the lysis solution was transferred to the plate before covering plates with seal cover and shaking for 10 min. (max speed). Centrifuge plates and leave for 8 hours at room temperature before counting the plates in a MicroBeta plate counter (Perkin Elmer).

hNK2R = target: T2, hNK2R (Homo sapiens, UniProt P21452); conditions: for EC50 / hNK2R, IP3 Efficacy: COS-7 cells; for EC50: 0.2% ovalbumin buffer; for hNK2R, IP3 Efficacy: figure legends: percent of 10^-6 M NKA
T2 construct: host or cells: COS-7
T2 sequence (P21452 1-398): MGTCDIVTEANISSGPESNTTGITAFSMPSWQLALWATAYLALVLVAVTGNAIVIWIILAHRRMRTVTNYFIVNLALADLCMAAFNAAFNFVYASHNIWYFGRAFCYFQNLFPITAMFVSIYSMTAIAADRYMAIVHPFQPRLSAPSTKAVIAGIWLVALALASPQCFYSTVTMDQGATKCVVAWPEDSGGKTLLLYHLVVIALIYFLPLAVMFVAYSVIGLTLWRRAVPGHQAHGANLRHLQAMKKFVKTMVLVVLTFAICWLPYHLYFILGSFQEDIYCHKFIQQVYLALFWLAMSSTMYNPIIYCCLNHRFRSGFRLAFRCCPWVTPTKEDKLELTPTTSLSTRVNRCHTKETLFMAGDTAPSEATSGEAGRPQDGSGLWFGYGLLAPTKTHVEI
Protocol: as §1, §2, §3

hNK3R = target: T3, hNK3R (Homo sapiens, UniProt P29371); conditions: for hNK3, IP3 Efficacy: figure legends: percent of 10^-6 M NKA
T3 construct: host or cells: COS-7
T3 sequence (P29371 1-465): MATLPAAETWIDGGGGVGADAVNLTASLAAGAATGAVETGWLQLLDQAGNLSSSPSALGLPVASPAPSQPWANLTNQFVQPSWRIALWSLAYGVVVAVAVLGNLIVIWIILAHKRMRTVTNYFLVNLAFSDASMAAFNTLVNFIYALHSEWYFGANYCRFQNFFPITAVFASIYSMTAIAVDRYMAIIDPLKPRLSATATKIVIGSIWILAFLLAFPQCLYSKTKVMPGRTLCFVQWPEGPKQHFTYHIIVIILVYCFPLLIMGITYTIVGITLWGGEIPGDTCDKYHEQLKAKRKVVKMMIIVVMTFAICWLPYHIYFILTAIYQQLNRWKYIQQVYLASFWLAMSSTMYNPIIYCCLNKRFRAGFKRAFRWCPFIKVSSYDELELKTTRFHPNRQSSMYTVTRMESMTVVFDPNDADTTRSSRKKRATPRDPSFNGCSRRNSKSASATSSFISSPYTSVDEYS
Protocol: as §1, §2, §3

CCCC[C@H](NC(=O)[C@H](CC(C)C)NC(=O)C(C)(C)NC(=O)[C@@H](NC(=O)[C@H](Cc1ccccc1)NC(=O)[C@H](CCCCN)NC(=O)[C@H](CC(=O)O)NC(=O)COCCOCCNC(=O)COCCOCCNC(=O)CC[C@H](NC(=O)CCCCCCCCCCCCCCCCC(=O)O)C(=O)O)C(C)C)C(N)=O [compound 373, *Asp;Lys;Phe;Val;Aib;Leu;Nle;NH2] ({C18 diacid-γGlu-AEEA-AEEA}-DKFV[Aib]L[Nle]-NH2)
EC50 (hNK1R): ~136 nM
hNK1R, IP3 Efficacy (hNK1R): 66%
EC50 (hNK2R): 4.3 nM
hNK2R, IP3 Efficacy (hNK2R): 89%
hNK3, IP3 Efficacy (hNK3R; COS-7 cells): 0%

COCC[C@H](NC(=O)[C@H](CC(C)C)N(C)C(=O)CNC(=O)[C@@H](NC(=O)[C@H](Cc1ccc(O)cc1)NC(=O)[C@H](CCCCN)NC(=O)[C@H](CCC(=O)O)NC(=O)COCCOCCNC(=O)COCCOCCNC(=O)CC[C@H](NC(=O)CCCCCCCCCCCCCCCCC(=O)O)C(=O)O)C(C)C)C(N)=O [compound 382, *Glu;Lys;Tyr;Val;Gly;NmLeu;Metox;NH2] ({C18 diacid-γGlu-AEEA-AEEA}-EKYVG[NMeL][hSer](Me)-NH2)
EC50 (hNK1R): ~3800 nM
hNK1R, IP3 Efficacy (hNK1R): 30%
EC50 (hNK2R): 3.7 nM
hNK2R, IP3 Efficacy (hNK2R): 95%
hNK3, IP3 Efficacy (hNK3R; COS-7 cells): 20%

CCCC[C@H](NC(=O)[C@H](CC(C)C)N(C)C(=O)CNC(=O)[C@H](CCCNC(=N)N)NC(=O)[C@H](Cc1ccccc1)NC(=O)[C@H](CCCCN)NC(=O)[C@H](CCC(=O)O)NC(=O)COCCOCCNC(=O)COCCOCCNC(=O)CC[C@H](NC(=O)CCCCCCCCCCCCCCCCC(=O)O)C(=O)O)C(N)=O [compound 315, *Glu;Lys;Phe;Arg;Gly;NmLeu;Nle;NH2] ({C18 diacid-γGlu-AEEA-AEEA}-EKFRG[NMeL][Nle]-NH2)
hNK1R, IP3 Efficacy (hNK1R): 0%
EC50 (hNK2R): 47 nM
hNK2R, IP3 Efficacy (hNK2R): 60%
hNK3, IP3 Efficacy (hNK3R; COS-7 cells): 0%

*Asp;Lys;Pro;Val;Gly;NmLeu;Nle;NH2 ({Conj‑Neu‑C18DA}-DKPVG[NMeL][Nle]-NH2; reading uncertain; also: printed as *Asp;Lys;Pro;Val;Gly;NmLeu;Nle;NH2) [compound 362, * is Conj-Neu-C18DA protractor on N-terminal α-amino group]
hNK1R receptor activation, in words (hNK1R): complete loss of receptor activation on NK1-3Rs
hNK1R, IP3 Efficacy (hNK1R): 0%
hNK2R receptor activation, in words (hNK2R): complete loss of receptor activation on NK1-3Rs
hNK2R, IP3 Efficacy (hNK2R): 0%
hNK3R receptor activation, in words (hNK3R): complete loss of receptor activation on NK1-3Rs
hNK3, IP3 Efficacy (hNK3R; COS-7 cells): 0%

CCCC[C@H](NC(=O)[C@H](CC(C)C)N(C)C(=O)CNC(=O)[C@@H](NC(=O)[C@H](Cc1ccc(I)cc1)NC(=O)[C@H](CCCCN)NC(=O)[C@H](CC(=O)O)NC(=O)COCCOCCNC(=O)COCCOCCNC(=O)CC[C@H](NC(=O)CCCCCCCCCCCCCCCCC(=O)O)C(=O)O)C(C)C)C(N)=O [compound 330, *Asp;Lys;4-I-Phe;Val;Gly;NmLeu;Nle;NH2]
EC50 (hNK1R): ~170 nM
hNK1R, IP3 Efficacy (hNK1R): 40%
hNK2R receptor activation, in words (hNK2R): completely destroys NK2R activation
hNK2R, IP3 Efficacy (hNK2R): 0%
hNK3, IP3 Efficacy (hNK3R; COS-7 cells): 0%

CCCC[C@H](NC(=O)[C@H](CC(C)C)N(C)C(=O)CNC(=O)[C@@H](NC(=O)[C@H](Cc1ccccc1)NC(=O)[C@H](CO)NC(=O)[C@H](CC(=O)O)NC(=O)[C@@H](NC(=O)[C@H](CCCCN)NC(=O)COCCOCCNC(=O)COCCOCCNC(=O)CC[C@H](NC(=O)CCCCCCCCCCCCCCCCC(=O)O)C(=O)O)[C@@H](C)O)C(C)C)C(N)=O [compound 312, *Lys;Thr;Asp;Ser;Phe;Val;Gly;NmLeu;Nle;NH2]
EC50 (hNK1R): ~178 nM
hNK1R, IP3 Efficacy (hNK1R): 44%
EC50 (hNK2R): 25 nM
hNK2R, IP3 Efficacy (hNK2R): 65%
EC50 (hNK3R; COS-7 cells, 0.2% ovalbumin buffer, read-out: hNK3, IP3 EC50): 513 nM
hNK3, IP3 Efficacy (hNK3R; COS-7 cells): 80%

*Asp;Lys;Val;Tyr;Gly;NmLeu;Nle;NH2 ({Conj‑Neu‑C18DA}-DKVYG[NMeL][Nle]-NH2; reading uncertain; also: printed as *Asp;Lys;Val;Tyr;Gly;NmLeu;Nle;NH2) [compound 363, * is Conj-Neu-C18DA protractor on N-terminal α-amino group]
hNK1R receptor activation, in words (hNK1R): complete loss of receptor activation on NK1-3Rs
hNK1R, IP3 Efficacy (hNK1R): 0%
hNK2R receptor activation, in words (hNK2R): complete loss of receptor activation on NK1-3Rs
hNK2R, IP3 Efficacy (hNK2R): 0%
hNK3R receptor activation, in words (hNK3R): complete loss of receptor activation on NK1-3Rs
hNK3, IP3 Efficacy (hNK3R; COS-7 cells): 0%

CCCC[C@H](NC(=O)[C@H](CC(C)C)N(C)C(=O)CCNC(=O)[C@@H](NC(=O)[C@H](Cc1ccccc1)NC(=O)[C@H](CO)NC(=O)[C@H](CC(=O)O)NC(=O)[C@@H](NC(=O)[C@H](CCCCN)NC(=O)COCCOCCNC(=O)COCCOCCNC(=O)CC[C@H](NC(=O)CCCCCCCCCCCCCCCCC(=O)O)C(=O)O)[C@@H](C)O)C(C)C)C(N)=O [compound 310, *Lys;Thr;Asp;Ser;Phe;Val;bAla;NmLeu;Nle;NH2] ({C18 diacid-γGlu-AEEA-AEEA}-KTDSFV[βAla][NMeL][Nle]-NH2)
hNK1R, IP3 Efficacy (hNK1R): 0%
EC50 (hNK2R): 45 nM
hNK2R, IP3 Efficacy (hNK2R): 65%
hNK3, IP3 Efficacy (hNK3R; COS-7 cells): 80%

CCCC[C@H](NC(=O)[C@H](CC(C)C)N(C)C(=O)CNC(=O)[C@@H](NC(=O)[C@H](Cc1ccc(O)cc1)NC(=O)[C@H](CCCCN)NC(=O)[C@H](CC(=O)O)NC(=O)COCCOCCNC(=O)COCCOCCNC(=O)CC[C@H](NC(=O)CCCCCCCCCCCCCCC(=O)O)C(=O)O)C(C)C)C(N)=O [compound 367, *Asp;Lys;Tyr;Val;Gly;NmLeu;Nle;NH2] ({C16 diacid-γGlu-AEEA-AEEA}-DKYVG[NMeL][Nle]-NH2)
EC50 (hNK1R): ~31000 nM
hNK1R, IP3 Efficacy (hNK1R): 20%
EC50 (hNK2R): 5.6 nM
hNK2R, IP3 Efficacy (hNK2R): 75%
hNK3, IP3 Efficacy (hNK3R; COS-7 cells): 0%

CSCC[C@H](NC(=O)[C@H](CC(C)C)N(C)C(=O)CNC(=O)[C@@H](NC(=O)[C@H](Cc1ccccc1)NC(=O)[C@H](CCCCNC(=O)COCCOCCNC(=O)COCCOCCNC(=O)CC[C@H](NC(=O)CCCCCCCCCCCCCCCCC(=O)O)C(=O)O)NC(=O)[C@H](CC(=O)O)NC(=O)COCCOCCNC(=O)COCCOCCNC(=O)CC[C@H](NC(=O)CCCCCCCCCCCCCCCCC(=O)O)C(=O)O)C(C)C)C(N)=O [compound 302, *Asp;Lys*;Phe;Val;Gly;NmLeu;Met;NH2]
hNK2R receptor activation, in words (hNK2R): inactivates the NKA(4-10) analogue
